This is an account of results in paper PMC11361638, “Chemical genetic screens reveal defective lysosomal trafficking as synthetic lethal with NF1 loss” (Journal of Cell Science, 2024).

In the assay the target is T1, BORCS7 (Homo sapiens, UniProt Q96B45).
T1 construct: endogenous full-length protein in U87-MG cells, subunit of the eight-protein BORC
T1 sequence (Q96B45 1-106): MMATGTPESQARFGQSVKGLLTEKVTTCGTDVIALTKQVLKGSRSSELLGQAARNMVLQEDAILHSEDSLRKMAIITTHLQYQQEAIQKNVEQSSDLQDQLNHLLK
In words: click-chemistry pulldown on alkyne resin, LC-MS/MS. As to conditions: U87-MG cells treated with 2 µM for 2 h, lysed in 8 M urea; labelled compound; binding subunit within BORC not resolved. Format: cell-based.

Take `Cn1cnnc1S/C=C/C(=O)c1ccc(CCN=[N+]=[N-])cc1` [az-Y102]: the iBAQ area ratio entry is “Click-chemistry enriched pulldown results for p21 and BORCS7”.
